Converted amounts (≈) assume the structure as drawn. Values belong to the molecule of their own block, whether it stands above or below them.
How the values were obtained:
[1] = Antiproliferative activity against human GTL16 cells after 72 hrs by tetrazolium-based colorimetric assay; details: GTL 16, 72 h
[2] = Aqueous solubility at pH 6.5; assay type: physicochemical
[3] = biological target: High affinity nerve growth factor receptor (Homo sapiens, UniProt P04629); assay: Inhibition of TrkA
[4] = Inhibition of PKC
[5] = Cmax in mouse at 50 mg/kg, po; assay type: ADME, organism-based; design: dose 50 mg/kg, route oral; details: in vivo
[6] = biological target: Insulin-like growth factor 1 receptor (Homo sapiens, UniProt P08069); assay: Inhibition of IGF1R
Insulin receptor = Insulin receptor (Homo sapiens, UniProt P06213); assay: Inhibition of InsR
Insulin receptor, sequence (P06213 28-758 limits assumed): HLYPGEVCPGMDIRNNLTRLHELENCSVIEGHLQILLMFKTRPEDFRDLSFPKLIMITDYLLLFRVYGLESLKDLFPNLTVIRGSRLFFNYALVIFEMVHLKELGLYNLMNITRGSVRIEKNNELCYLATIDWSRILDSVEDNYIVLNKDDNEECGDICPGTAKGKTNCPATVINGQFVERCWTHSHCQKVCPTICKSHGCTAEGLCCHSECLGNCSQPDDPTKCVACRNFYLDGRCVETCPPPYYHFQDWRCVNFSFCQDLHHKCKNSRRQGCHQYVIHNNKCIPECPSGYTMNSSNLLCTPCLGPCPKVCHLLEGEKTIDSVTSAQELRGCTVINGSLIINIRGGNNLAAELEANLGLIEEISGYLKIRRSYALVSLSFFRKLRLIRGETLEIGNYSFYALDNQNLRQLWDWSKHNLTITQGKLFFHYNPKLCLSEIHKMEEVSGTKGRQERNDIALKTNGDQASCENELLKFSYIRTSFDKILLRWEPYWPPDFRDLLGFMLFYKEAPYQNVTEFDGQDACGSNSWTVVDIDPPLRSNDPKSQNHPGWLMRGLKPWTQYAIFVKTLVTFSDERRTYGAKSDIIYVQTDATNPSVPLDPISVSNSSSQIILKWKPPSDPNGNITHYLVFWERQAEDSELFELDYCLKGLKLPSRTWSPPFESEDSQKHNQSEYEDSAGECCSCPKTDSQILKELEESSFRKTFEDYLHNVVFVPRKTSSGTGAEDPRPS
Insulin receptor, sequence (P06213 763-1382 limits assumed): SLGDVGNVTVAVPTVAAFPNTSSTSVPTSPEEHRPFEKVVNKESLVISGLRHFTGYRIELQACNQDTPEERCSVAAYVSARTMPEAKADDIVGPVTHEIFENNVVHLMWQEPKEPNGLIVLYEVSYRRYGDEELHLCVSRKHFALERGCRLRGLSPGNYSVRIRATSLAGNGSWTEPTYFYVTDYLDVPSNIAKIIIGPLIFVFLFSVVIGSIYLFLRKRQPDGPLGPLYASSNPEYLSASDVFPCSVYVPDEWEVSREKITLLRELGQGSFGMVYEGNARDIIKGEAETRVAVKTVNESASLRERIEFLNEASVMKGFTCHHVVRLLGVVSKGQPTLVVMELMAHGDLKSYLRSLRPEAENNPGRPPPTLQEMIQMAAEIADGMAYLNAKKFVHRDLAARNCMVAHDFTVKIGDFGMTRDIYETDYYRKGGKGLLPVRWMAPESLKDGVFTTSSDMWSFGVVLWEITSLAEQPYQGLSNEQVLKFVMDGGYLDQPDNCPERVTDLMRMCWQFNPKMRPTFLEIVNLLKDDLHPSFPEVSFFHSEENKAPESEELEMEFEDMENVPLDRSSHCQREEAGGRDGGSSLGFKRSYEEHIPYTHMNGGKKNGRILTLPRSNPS

[7] = biological target: Tyrosine-protein kinase Lck (Homo sapiens, UniProt P06239); assay: Inhibition of lck
Tyrosine-protein kinase Lck, sequence (P06239 whole entry): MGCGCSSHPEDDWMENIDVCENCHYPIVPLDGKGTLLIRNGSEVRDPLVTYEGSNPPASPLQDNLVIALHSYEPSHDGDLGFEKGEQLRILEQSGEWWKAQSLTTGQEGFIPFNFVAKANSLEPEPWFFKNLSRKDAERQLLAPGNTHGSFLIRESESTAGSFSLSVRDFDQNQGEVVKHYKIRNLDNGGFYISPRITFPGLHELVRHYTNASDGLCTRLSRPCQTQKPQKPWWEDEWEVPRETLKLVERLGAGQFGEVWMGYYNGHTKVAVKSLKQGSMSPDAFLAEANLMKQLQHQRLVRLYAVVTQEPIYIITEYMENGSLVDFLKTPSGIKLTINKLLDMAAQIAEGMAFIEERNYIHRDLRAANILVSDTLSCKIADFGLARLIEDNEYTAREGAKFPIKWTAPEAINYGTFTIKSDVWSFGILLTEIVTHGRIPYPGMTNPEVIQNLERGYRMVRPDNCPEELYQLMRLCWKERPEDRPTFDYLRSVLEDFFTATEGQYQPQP

[8] = Clearance in mouse at 20 mg/kg, iv; assay type: ADME, organism-based; design: dose 20 mg/kg, route intravenous; details: in vivo
[9] = Bioavailability in mouse at 20 mg/kg, ip; assay type: ADME, organism-based; details: in vivo
[10] = biological target: MAP kinase-activated protein kinase 2 (Homo sapiens, UniProt P49137); assay: Inhibition of MK2
MAP kinase-activated protein kinase 2, sequence (P49137 whole entry): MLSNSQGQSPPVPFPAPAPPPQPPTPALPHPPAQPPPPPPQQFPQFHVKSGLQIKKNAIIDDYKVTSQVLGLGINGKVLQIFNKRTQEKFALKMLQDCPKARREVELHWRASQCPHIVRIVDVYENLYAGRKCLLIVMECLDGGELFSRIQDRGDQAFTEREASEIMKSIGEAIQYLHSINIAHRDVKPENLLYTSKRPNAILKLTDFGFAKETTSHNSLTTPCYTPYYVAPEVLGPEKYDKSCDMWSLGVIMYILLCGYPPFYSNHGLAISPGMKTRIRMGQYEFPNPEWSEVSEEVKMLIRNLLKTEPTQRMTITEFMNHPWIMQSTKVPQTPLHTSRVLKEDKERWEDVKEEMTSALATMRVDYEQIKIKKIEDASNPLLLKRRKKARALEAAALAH

[11] = Metabolic stability per 10^6 cells in mouse hepatocytes; assay type: ADME, cell-based, Hepatocyte
[12] = Permeability across human Caco-2 cells; assay type: ADME, cell-based; details: read-out: permeability
[13] = biological target: Cyclin-dependent kinase 2 (Homo sapiens, UniProt P24941); assay: Inhibition of CDK2
Liver = assay: Metabolic stability in mouse liver microsomes; assay type: ADME, Microsome
[14] = Inhibition of PKA
[15] = biological target: Receptor tyrosine-protein kinase erbB-2 (Homo sapiens, UniProt P04626); assay: Inhibition of HER2
Receptor tyrosine-protein kinase erbB-2, sequence (P04626 whole entry): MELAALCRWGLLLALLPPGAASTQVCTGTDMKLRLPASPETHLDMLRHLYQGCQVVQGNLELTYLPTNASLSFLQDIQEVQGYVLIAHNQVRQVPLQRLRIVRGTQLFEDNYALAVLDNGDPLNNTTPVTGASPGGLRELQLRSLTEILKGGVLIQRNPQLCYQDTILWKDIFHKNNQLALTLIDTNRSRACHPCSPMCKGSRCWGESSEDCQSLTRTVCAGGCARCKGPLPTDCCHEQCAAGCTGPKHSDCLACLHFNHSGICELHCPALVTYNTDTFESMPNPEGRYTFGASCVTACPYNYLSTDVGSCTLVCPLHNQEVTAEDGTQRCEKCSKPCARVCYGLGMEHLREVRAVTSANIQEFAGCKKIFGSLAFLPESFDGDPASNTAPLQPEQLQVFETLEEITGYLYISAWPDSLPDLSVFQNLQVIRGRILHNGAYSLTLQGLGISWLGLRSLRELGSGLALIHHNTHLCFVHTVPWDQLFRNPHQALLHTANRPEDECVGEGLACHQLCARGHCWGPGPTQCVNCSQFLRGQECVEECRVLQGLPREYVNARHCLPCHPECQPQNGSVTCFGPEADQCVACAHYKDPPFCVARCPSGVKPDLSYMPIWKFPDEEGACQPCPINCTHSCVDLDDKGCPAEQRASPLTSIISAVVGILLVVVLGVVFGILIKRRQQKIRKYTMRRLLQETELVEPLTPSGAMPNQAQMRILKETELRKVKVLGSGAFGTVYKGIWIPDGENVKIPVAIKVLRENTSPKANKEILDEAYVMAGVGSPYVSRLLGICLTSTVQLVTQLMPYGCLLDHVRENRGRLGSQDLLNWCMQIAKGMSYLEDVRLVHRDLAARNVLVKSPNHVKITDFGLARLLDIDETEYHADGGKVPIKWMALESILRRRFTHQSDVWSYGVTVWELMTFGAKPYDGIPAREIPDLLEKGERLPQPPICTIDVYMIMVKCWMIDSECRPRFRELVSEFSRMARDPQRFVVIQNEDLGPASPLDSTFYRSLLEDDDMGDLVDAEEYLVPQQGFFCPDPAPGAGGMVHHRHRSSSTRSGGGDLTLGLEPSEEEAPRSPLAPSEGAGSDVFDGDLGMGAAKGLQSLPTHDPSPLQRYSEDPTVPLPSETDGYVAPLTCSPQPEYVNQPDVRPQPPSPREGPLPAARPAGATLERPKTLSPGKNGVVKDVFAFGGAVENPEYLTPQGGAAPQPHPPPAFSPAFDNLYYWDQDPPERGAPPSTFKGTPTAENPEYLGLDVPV

[16] = biological target: Vascular endothelial growth factor receptor 2 (Homo sapiens, UniProt P35968); assay: Inhibition of VEGFR2
[17] = biological target: Hepatocyte growth factor receptor (Homo sapiens, UniProt P08581); assay: Inhibition of human recombinant c-Met expressed in insect cell-baculovirus expression system
Hepatocyte growth factor receptor, sequence (P08581 whole entry): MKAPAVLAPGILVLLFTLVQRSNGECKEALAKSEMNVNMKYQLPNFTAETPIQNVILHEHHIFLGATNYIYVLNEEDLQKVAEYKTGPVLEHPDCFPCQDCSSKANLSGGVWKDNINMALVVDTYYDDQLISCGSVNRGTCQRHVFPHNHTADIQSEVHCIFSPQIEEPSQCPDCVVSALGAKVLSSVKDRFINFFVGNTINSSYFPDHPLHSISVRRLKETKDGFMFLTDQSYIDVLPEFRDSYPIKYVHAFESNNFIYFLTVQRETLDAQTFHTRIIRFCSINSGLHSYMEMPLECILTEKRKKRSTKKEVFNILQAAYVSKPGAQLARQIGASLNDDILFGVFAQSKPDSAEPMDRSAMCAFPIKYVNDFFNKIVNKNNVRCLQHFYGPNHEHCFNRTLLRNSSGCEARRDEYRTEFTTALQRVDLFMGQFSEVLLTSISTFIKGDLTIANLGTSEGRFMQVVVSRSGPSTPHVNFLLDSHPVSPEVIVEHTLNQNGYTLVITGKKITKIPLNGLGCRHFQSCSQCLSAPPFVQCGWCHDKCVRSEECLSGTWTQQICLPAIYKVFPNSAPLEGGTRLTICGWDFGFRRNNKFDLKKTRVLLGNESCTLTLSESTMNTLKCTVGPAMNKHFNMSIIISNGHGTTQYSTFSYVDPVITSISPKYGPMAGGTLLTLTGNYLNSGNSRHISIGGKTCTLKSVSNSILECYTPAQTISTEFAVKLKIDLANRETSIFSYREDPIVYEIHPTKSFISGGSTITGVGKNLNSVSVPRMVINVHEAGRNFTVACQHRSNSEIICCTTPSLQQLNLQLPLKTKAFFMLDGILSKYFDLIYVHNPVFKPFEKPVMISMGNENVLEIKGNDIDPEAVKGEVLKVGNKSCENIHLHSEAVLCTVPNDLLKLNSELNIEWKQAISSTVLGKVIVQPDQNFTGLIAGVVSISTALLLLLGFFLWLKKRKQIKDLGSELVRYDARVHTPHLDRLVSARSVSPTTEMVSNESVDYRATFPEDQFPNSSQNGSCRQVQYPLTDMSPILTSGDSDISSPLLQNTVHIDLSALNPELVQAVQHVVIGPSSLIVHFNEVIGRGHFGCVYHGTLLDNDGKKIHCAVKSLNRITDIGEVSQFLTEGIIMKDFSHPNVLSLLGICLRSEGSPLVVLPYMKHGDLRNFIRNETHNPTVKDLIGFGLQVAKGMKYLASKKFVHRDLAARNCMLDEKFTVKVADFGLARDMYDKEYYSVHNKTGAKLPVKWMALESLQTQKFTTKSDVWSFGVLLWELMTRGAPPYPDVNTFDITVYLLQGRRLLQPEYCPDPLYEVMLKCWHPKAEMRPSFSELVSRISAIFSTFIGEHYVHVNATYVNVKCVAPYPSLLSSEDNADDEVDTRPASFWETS

Compound: Cc1c(OCCN2CCN(C)CC2)cn2ncnc(Oc3ccc(NC(=O)c4cc(Cl)ccc4F)cc3F)c12
- IC50 [1]: 270 nM

- solubility [2]: 290 µg/mL (≈ 556 µM)
Compound: O=C(Cc1ccc(F)cc1)NC(=O)Nc1ccc(Oc2ncnn3ccc(CN4CCNCC4)c23)c(F)c1

- IC50 [3]: 200 nM
- IC50 [4]: > 5 µM
- Cmax [5]: 780 nM
- IC50 [6]: > 5 µM
- IC50 (Insulin receptor): > 5 µM
- IC50 [7]: > 5 µM
- clearance [8]: 25 mL/min/kg
- bioavailability [9]: 81%
- IC50 [10]: > 5 µM
- Stability [11]: 2 pmol/min
- Papp [12]: < 1.5 ×10⁻⁶ cm/s
- IC50 [13]: > 5 µM
- Stability (Liver): 0 nmol/min/mg
- IC50 [14]: > 5 µM
- IC50 [15]: > 5 µM
- IC50 [16]: > 5 µM
Compound: NC1CCN(Cc2ccn3ncnc(Oc4ccc(NC(=O)NC(=O)Cc5ccc(F)cc5)cc4F)c23)CC1

Compound: NC1CCC(=Cc2ccn3ncnc(Oc4ccc(NC(=O)NC(=O)Cc5ccc(F)cc5)cc4F)c23)CC1 (stereo unspecified)
- IC50 [1]: 140 nM

Compound: Cc1c(OCCCN(C)C)cn2ncnc(Oc3ccc(NC(=O)CC(=O)Nc4ccc(F)cc4)cc3F)c12
- IC50 [1]: 270 nM

- IC50 [17]: > 2000 nM
Compound: O=C(Cc1ccc(F)cc1)NC(=O)Nc1ccc(Oc2ncnn3ccc(Cl)c23)c(F)c1

Compound: Cc1c(OCCN2CCN(C)CC2)cn2ncnc(Oc3ccc(NC(=O)c4ccccc4F)cc3F)c12
- IC50 [1]: 840 nM

Compound: Cc1c(OCCN2CCN(C)CC2)cn2ncnc(Oc3ccc(NC(=O)c4cc(F)ccc4F)cc3F)c12
- IC50 [1]: > 1000 nM

Compound: Cc1c(OCCN2CCN(C)CC2)cn2ncnc(Oc3ccc(NC(=O)c4c(F)cccc4F)cc3F)c12
- IC50 [1]: > 1000 nM

Compound: Cc1c(OCCCN(C)C)cn2ncnc(Oc3ccc(NC(=O)c4c(F)cccc4F)cc3F)c12
- IC50 [1]: 170 nM

Compound: Cc1c(OCCCN(C)C)cn2ncnc(Oc3ccc(NC(=O)NC(=O)Cc4ccc(F)cc4)cc3F)c12
- IC50 [1]: 68 nM

Source: ChEMBL document CHEMBL1141528, “Identification of pyrrolo[2,1-f][1,2,4]triazine-based inhibitors of Met kinase” (Bioorg Med Chem Lett, 2008)
